# Where “and” joins values, the source holds several entries; their conditions need not be identical. Equal values may be shown once.
# System: BDF1 mice, Adenocarcinoma 755 s.c., tumor weight T/C
# Assay: NCI In Vivo Anticancer Drug Screen. Data for tumor model Adenocarcinoma 755 (subcutaneous) in B6D2F1 (BDF1) mice
# Conditions: endpoint: mean tumor weight, higher = larger tumour
# Protocol: The antitumor activity of compounds was measured in mice bearing transplantable tumors. Survival or tumor size were measured and the results are expressed as the measurement made in the treated group (T) divided by the measurement made in the vehicle treated control group (C). The tumor model used in this assay is Adenocarcinoma 755 (subcutaneous) in B6D2F1 (BDF1) mice
# [1] = dose: 12.5 mg/kg/injection, schedule: Q01DX011 (ip), vehicle: carboxymethylcellulose (CMC)
# [2] = dose: 25.0 mg/kg/injection, schedule: Q01DX011 (ip), vehicle: carboxymethylcellulose (CMC)
compound,measurement,setting,value
C[C@]12C[C@H](O)[C@H]3[C@@H](CCC4=CC(=O)CC[C@@]43C)[C@@H]1CC[C@@H]2C(=O)CO,T/C,"dose: 10.0 mg/kg/injection, schedule: Q01DX011 (ip), vehicle: steriod suspending solution",110 % of control
same,T/C,"dose: 10.0 mg/kg/injection, schedule: Q01DX011 (sc), vehicle: steriod suspending solution",79 % of control
same,T/C,"dose: 20.0 mg/kg/injection, schedule: Q01DX011 (ip), vehicle: steriod suspending solution",103 % of control
same,T/C,"dose: 20.0 mg/kg/injection, schedule: Q01DX011 (sc), vehicle: steriod suspending solution",84 % of control
same,T/C,"dose: 40.0 mg/kg/injection, schedule: Q01DX011 (im), vehicle: steriod suspending solution",67 % of control
same,T/C,"dose: 40.0 mg/kg/injection, schedule: Q01DX011 (ip), vehicle: steriod suspending solution",81 % of control
same,T/C,"dose: 40.0 mg/kg/injection, schedule: Q01DX011 (iv), vehicle: steriod suspending solution",87 % of control
same,T/C,"dose: 40.0 mg/kg/injection, schedule: Q01DX011 (sc), vehicle: steriod suspending solution",64 % of control
same,T/C,"dose: 50.0 mg/kg/injection, schedule: Q#A X022 (sc), vehicle: steriod suspending solution",20 % of control
same,T/C,"dose: 80.0 mg/kg/injection, schedule: Q01DX011 (im), vehicle: steriod suspending solution",49 % of control
same,T/C,"dose: 80.0 mg/kg/injection, schedule: Q01DX011 (ip), vehicle: steriod suspending solution",95 % of control
same,T/C,"dose: 80.0 mg/kg/injection, schedule: Q01DX011 (iv), vehicle: steriod suspending solution",64 % of control
same,T/C,"dose: 80.0 mg/kg/injection, schedule: Q01DX011 (oral), vehicle: steriod suspending solution",58 % of control
same,T/C,"dose: 80.0 mg/kg/injection, schedule: Q01DX011 (sc), vehicle: steriod suspending solution",51 % of control
same,T/C,"dose: 100.0 mg/kg/injection, schedule: Q01DX011 (oral), vehicle: steriod suspending solution",38 % of control
same,T/C,"dose: 100.0 mg/kg/injection, schedule: Q#A X022 (sc), vehicle: steriod suspending solution",8 % of control
same,T/C,"dose: 150.0 mg/kg/injection, schedule: Q03DX004 (sc), vehicle: steriod suspending solution",51 % of control
same,T/C,"dose: 160.0 mg/kg/injection, schedule: Q01DX011 (im), vehicle: steriod suspending solution",30 % of control
same,T/C,"dose: 160.0 mg/kg/injection, schedule: Q01DX011 (ip), vehicle: steriod suspending solution",72 % of control
same,T/C,"dose: 160.0 mg/kg/injection, schedule: Q01DX011 (iv), vehicle: steriod suspending solution",42 % of control
same,T/C,"dose: 160.0 mg/kg/injection, schedule: Q01DX011 (sc), vehicle: steriod suspending solution",31 % of control
same,T/C,"dose: 175.0 mg/kg/injection, schedule: Q07DX002 (sc), vehicle: steriod suspending solution",104 % of control
same,T/C,"dose: 300.0 mg/kg/injection, schedule: Q03DX004 (sc), vehicle: steriod suspending solution",24 % of control
same,T/C,"dose: 320.0 mg/kg/injection, schedule: Q01DX011 (im), vehicle: steriod suspending solution",22 % of control
same,T/C,"dose: 320.0 mg/kg/injection, schedule: Q01DX011 (ip), vehicle: steriod suspending solution",42 % of control
same,T/C,"dose: 320.0 mg/kg/injection, schedule: Q01DX011 (oral), vehicle: steriod suspending solution",38 % of control
same,T/C,"dose: 320.0 mg/kg/injection, schedule: Q01DX011 (sc), vehicle: steriod suspending solution",16 % of control
same,T/C,"dose: 350.0 mg/kg/injection, schedule: Q07DX002 (sc), vehicle: steriod suspending solution",58 % of control
same,T/C,"dose: 400.0 mg/kg/injection, schedule: Q01DX011 (oral), vehicle: steriod suspending solution",22 % of control
same,T/C,"dose: 600.0 mg/kg/injection, schedule: Q03DX004 (sc), vehicle: steriod suspending solution",9 % of control
same,T/C,"dose: 640.0 mg/kg/injection, schedule: Q01DX011 (oral), vehicle: steriod suspending solution",17 % of control and 18 % of control
same,T/C,"dose: 700.0 mg/kg/injection, schedule: Q07DX002 (sc), vehicle: steriod suspending solution",20 % of control
same,T/C,"dose: 1200.0 mg/kg/injection, schedule: Q03DX004 (sc), vehicle: steriod suspending solution",5 % of control
same,T/C,"dose: 1400.0 mg/kg/injection, schedule: Q07DX002 (sc), vehicle: steriod suspending solution",16 % of control
CC(C)Cn1cnc2c(SCc3ccccc3)nc(N)nc21,T/C,"dose: 37.5 mg/kg/injection, schedule: Q01DX011 (ip), vehicle: methylcellulose (MC)",62 % of control
same,T/C,"dose: 75.0 mg/kg/injection, schedule: Q01DX011 (ip), vehicle: methylcellulose (MC)",27 % of control
same,T/C,"dose: 150.0 mg/kg/injection, schedule: Q01DX011 (ip), vehicle: methylcellulose (MC)",20 % of control
same,T/C,"dose: 300.0 mg/kg/injection, schedule: Q01DX011 (ip), vehicle: methylcellulose (MC)",4 % of control
Fc1ccccc1CSc1ncnc2c1ncn2C1CCCCO1 (stereo unspecified),T/C,"dose: 30.0 mg/kg/injection, schedule: Q01DX011 (ip), vehicle: methylcellulose (MC)",21 % of control
CN(C)c1nc(N)nc(Nc2ccc(Br)cc2)c1N=O,T/C,[1],40 % of control
same,T/C,[2],51 % of control
C[N+]1(C)CCN(C(=O)CCCl)CC1,T/C,"dose: 3.1 mg/kg/injection, schedule: Q01DX011 (ip), vehicle: other",47 % of control
same,T/C,"dose: 6.2 mg/kg/injection, schedule: Q01DX011 (ip), vehicle: other",93 % of control
same,T/C,"dose: 12.5 mg/kg/injection, schedule: Q01DX011 (ip), vehicle: other",66 % of control
C=CC(=O)NCNC(=O)CCBr,T/C,[1],62 % of control
same,T/C,[2],34 % of control
same,T/C,"dose: 50.0 mg/kg/injection, schedule: Q01DX011 (ip), vehicle: carboxymethylcellulose (CMC)",1 % of control
CSc1nc(Cl)c2cc[nH]c2n1,T/C,"dose: 30.0 mg/kg/injection, schedule: Q01DX011 (ip), vehicle: carboxymethylcellulose (CMC)",89 % of control
same,T/C,"dose: 120.0 mg/kg/injection, schedule: Q01DX011 (ip), vehicle: carboxymethylcellulose (CMC)",72 % of control
same,T/C,"dose: 240.0 mg/kg/injection, schedule: Q01DX011 (ip), vehicle: carboxymethylcellulose (CMC)",79 % of control
CC(=O)OCC(=O)[C@@]1(O)CC[C@H]2[C@@H]3CCC4=CC(=O)[C@H](C)C[C@]4(C)[C@@]3(F)[C@@H](O)C[C@@]21C,T/C,"dose: 3.75 mg/kg/injection, schedule: Q01DX011 (sc), vehicle: steriod suspending solution",65 % of control
same,T/C,"dose: 7.5 mg/kg/injection, schedule: Q01DX011 (sc), vehicle: steriod suspending solution",29 % of control
same,T/C,"dose: 15.0 mg/kg/injection, schedule: Q01DX011 (sc), vehicle: steriod suspending solution",20 % of control
same,T/C,"dose: 30.0 mg/kg/injection, schedule: Q01DX011 (sc), vehicle: steriod suspending solution",9 % of control
C1CN1P1(N2CC2)=NP(N2CC2)(N2CC2)=NP(N2CC2)(N2CC2)=NP(N2CC2)(N2CC2)=N1,T/C,"dose: 0.4 mg/kg/injection, schedule: Q01DX011 (ip), vehicle: carboxymethylcellulose (CMC)",48 % of control
same,T/C,"dose: 0.4 mg/kg/injection, schedule: Q02DX011 (ip), vehicle: carboxymethylcellulose (CMC)",96 % of control
same,T/C,"dose: 0.8 mg/kg/injection, schedule: Q01DX011 (ip), vehicle: carboxymethylcellulose (CMC)",22 % of control
same,T/C,"dose: 0.8 mg/kg/injection, schedule: Q02DX011 (ip), vehicle: carboxymethylcellulose (CMC)",54 % of control
same,T/C,"dose: 1.5 mg/kg/injection, schedule: Q01DX011 (ip), vehicle: methylcellulose (MC)",45 % of control
same,T/C,"dose: 1.5 mg/kg/injection, schedule: Q02DX006 (ip), vehicle: carboxymethylcellulose (CMC)",50 % of control
same,T/C,"dose: 1.6 mg/kg/injection, schedule: Q01DX011 (ip), vehicle: carboxymethylcellulose (CMC)",6 % of control
same,T/C,"dose: 1.6 mg/kg/injection, schedule: Q02DX011 (ip), vehicle: carboxymethylcellulose (CMC)",31 % of control
same,T/C,"dose: 3.0 mg/kg/injection, schedule: Q01DX011 (ip), vehicle: methylcellulose (MC)",13 % of control
same,T/C,"dose: 3.0 mg/kg/injection, schedule: Q02DX006 (ip), vehicle: carboxymethylcellulose (CMC)",10 % of control
same,T/C,"dose: 3.2 mg/kg/injection, schedule: Q02DX011 (ip), vehicle: carboxymethylcellulose (CMC)",1 % of control
same,T/C,"dose: 6.0 mg/kg/injection, schedule: Q02DX006 (ip), vehicle: carboxymethylcellulose (CMC)",1 % of control
